Results reported in the kinase profiling compilation of Christmann-Franck et al. (2016).

Tests used:
Assay in all cases: KINOMEscan competition binding
Settings in all cases: compound 10.0 µM
ACVR2B (human) = ACVR2B (human) (UniProt Q13705)
AKT2 (human) = AKT2 (human) (UniProt P31751)
AKT3 (human) = AKT3 (human) (UniProt Q9Y243)
BTK (human) = BTK (human) (UniProt Q06187)
CAMKK2 (human) = CAMKK2 (human) (UniProt Q96RR4)
CDK14 (human) = CDK14 (human) (UniProt O94921)
CSK (human) = CSK (human) (UniProt P41240)
CSNK1D (human) = CSNK1D (human) (UniProt P48730)
DMPK (human) = DMPK (human) (UniProt Q09013)
EIF2AK2 (human) = EIF2AK2 (human) (UniProt P19525)
FLT3 (human) = FLT3 (human) (UniProt P36888)
IGF1R (human) = IGF1R (human) (UniProt P08069)
IRAK3 (human) = IRAK3 (human) (UniProt Q9Y616)
ITK (human) = ITK (human) (UniProt Q08881)
MAPK10 (human) = MAPK10 (human) (UniProt P53779)
MYLK (human) = MYLK (human) (UniProt Q15746)
NTRK2 (human) = NTRK2 (human) (UniProt Q16620)
PDGFRA (human) = PDGFRA (human) (UniProt P16234)
PIM2 (human) = PIM2 (human) (UniProt Q9P1W9)
PRKAA1 (human) = PRKAA1 (human) (UniProt Q13131)
PRKCH (human) = PRKCH (human) (UniProt P24723)
RPS6KA1 KD2 (human) = RPS6KA1 KD2 (human) (UniProt Q15418)
RPS6KA3 KD1 (human) = RPS6KA3 KD1 (human) (UniProt P51812)
TESK1 (human) = TESK1 (human) (UniProt Q15569)
TGFBR2 (human) = TGFBR2 (human) (UniProt P37173)
TXK (human) = TXK (human) (UniProt P42681)
[1] = target: TYK2 JH2 pseudokinase (human) (UniProt P29597)
ULK2 (human) = ULK2 (human) (UniProt Q8IYT8)
WEE1 (human) = WEE1 (human) (UniProt P30291)
ZAP70 (human) = ZAP70 (human) (UniProt P43403)
CDKL3 (human) = CDKL3 (human) (UniProt Q8IVW4)
ERBB3 (human) = ERBB3 (human) (UniProt P21860)
HIPK3 (human) = HIPK3 (human) (UniProt Q9H422)
[2] = system: KIT (human), P10721 [L576P]
MATK (human) = MATK (human) (UniProt P42679)
PI4KB (human) = PI4KB (human) (UniProt Q9UBF8)
PRPF4B (human) = PRPF4B (human) (UniProt Q13523)
TBK1 (human) = TBK1 (human) (UniProt Q9UHD2)

EIF2AK2 (human), sequence (P19525 whole entry, looked up): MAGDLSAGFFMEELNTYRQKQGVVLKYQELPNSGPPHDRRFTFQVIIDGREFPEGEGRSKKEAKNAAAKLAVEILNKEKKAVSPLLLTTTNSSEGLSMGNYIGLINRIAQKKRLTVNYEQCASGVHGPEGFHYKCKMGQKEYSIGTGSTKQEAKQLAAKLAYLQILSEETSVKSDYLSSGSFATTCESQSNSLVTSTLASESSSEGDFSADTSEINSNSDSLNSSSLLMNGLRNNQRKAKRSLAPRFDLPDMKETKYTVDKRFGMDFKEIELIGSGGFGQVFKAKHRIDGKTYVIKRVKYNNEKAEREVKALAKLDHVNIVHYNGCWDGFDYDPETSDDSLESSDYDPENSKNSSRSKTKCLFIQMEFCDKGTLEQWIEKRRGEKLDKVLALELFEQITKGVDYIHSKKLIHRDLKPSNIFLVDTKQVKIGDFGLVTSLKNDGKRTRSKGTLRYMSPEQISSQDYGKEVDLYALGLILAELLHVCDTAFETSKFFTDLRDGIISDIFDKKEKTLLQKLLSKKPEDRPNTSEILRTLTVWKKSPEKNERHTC
CSNK1D (human), sequence (P48730 whole entry, looked up): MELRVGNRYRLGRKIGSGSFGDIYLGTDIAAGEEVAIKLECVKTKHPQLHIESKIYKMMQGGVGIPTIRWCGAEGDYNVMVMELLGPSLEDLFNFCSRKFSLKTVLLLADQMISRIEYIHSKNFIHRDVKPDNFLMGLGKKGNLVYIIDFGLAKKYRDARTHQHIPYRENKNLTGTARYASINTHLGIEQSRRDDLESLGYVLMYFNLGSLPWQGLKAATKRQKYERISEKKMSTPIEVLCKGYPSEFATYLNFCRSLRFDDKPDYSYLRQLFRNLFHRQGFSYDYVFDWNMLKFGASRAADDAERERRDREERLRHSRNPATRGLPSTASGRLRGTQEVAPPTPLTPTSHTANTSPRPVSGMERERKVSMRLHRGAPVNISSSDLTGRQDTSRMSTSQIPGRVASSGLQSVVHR
FLT3 (human), sequence (P36888 whole entry, looked up): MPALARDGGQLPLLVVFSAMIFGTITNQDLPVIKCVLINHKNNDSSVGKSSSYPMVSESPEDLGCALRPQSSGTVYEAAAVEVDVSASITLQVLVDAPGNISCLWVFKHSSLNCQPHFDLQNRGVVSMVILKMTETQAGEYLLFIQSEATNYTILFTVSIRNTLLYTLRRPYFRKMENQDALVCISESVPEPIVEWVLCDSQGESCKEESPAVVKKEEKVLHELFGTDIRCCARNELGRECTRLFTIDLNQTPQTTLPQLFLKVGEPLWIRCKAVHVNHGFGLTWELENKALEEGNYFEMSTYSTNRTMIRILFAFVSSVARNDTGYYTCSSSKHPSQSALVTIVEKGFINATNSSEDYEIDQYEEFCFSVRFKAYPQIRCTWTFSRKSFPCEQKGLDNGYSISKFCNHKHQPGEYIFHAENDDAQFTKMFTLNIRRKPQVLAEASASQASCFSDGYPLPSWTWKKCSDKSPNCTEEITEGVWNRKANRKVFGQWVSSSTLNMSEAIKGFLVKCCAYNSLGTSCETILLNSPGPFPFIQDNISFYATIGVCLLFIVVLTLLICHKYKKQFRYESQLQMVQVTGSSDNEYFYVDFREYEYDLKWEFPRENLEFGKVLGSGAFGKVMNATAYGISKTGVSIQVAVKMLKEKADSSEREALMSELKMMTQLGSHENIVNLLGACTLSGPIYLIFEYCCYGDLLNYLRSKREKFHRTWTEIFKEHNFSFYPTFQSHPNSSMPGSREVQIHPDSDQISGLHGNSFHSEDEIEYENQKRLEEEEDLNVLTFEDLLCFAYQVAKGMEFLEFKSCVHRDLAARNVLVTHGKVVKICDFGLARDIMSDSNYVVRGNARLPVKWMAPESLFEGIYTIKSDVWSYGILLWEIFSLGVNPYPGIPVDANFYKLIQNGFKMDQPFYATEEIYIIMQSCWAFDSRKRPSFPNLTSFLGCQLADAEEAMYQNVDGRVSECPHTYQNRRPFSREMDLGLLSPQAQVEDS
PRKAA1 (human), sequence (Q13131 whole entry, looked up): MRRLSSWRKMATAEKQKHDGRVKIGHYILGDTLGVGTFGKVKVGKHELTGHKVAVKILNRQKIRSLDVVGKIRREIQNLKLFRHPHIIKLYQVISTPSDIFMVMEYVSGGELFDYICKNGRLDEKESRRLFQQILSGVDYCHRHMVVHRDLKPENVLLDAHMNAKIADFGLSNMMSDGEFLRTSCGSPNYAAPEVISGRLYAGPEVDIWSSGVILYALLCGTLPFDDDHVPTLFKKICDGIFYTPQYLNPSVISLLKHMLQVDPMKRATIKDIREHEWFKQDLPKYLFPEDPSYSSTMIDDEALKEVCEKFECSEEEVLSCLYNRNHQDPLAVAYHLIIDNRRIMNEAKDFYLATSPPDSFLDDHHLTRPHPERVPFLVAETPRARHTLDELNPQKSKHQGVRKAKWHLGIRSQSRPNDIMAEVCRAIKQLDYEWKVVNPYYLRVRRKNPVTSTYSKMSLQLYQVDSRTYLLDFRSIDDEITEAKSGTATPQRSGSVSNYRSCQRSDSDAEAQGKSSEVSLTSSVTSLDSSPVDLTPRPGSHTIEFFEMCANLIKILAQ
AKT2 (human), sequence (P31751 whole entry, looked up): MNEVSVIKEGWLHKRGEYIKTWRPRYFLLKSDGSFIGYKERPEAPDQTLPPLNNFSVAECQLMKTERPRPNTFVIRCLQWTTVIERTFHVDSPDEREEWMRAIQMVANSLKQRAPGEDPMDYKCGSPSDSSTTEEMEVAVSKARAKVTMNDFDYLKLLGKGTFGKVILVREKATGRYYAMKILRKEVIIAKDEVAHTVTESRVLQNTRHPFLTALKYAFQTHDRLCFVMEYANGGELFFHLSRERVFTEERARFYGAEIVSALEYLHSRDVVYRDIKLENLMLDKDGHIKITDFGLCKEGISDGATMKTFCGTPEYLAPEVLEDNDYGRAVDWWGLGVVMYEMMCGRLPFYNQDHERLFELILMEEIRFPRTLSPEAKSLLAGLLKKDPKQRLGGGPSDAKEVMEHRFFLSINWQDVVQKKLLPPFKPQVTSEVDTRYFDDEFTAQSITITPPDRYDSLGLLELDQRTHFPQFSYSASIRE
ACVR2B (human), sequence (Q13705 whole entry, looked up): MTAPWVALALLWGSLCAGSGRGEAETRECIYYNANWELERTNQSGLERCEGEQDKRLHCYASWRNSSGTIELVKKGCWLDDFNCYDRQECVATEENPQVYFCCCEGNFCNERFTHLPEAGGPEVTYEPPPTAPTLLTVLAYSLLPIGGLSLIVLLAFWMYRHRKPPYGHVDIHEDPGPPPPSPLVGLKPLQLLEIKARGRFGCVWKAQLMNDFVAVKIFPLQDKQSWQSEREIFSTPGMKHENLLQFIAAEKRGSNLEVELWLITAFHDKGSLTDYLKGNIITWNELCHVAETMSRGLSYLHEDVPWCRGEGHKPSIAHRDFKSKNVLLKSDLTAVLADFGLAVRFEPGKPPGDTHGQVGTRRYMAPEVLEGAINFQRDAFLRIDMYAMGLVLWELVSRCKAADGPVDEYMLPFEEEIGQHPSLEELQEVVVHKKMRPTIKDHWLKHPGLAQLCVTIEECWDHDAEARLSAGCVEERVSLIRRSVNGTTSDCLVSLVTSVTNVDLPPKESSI
TGFBR2 (human), sequence (P37173 whole entry, looked up): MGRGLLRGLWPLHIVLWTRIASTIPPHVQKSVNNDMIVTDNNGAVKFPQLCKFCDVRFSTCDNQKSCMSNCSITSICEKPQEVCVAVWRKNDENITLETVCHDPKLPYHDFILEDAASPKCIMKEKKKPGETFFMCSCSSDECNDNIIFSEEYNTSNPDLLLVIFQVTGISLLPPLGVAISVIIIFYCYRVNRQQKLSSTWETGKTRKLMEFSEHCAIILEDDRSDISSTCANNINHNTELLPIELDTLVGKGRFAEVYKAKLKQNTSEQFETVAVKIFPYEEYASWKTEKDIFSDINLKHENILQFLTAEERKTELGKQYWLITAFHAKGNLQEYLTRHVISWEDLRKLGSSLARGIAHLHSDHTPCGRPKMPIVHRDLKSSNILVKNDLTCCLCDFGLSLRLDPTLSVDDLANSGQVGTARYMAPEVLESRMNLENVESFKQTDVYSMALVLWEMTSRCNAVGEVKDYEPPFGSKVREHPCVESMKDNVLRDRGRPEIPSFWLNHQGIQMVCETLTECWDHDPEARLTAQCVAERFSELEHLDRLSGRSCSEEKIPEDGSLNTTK
NTRK2 (human), sequence (Q16620 whole entry, looked up): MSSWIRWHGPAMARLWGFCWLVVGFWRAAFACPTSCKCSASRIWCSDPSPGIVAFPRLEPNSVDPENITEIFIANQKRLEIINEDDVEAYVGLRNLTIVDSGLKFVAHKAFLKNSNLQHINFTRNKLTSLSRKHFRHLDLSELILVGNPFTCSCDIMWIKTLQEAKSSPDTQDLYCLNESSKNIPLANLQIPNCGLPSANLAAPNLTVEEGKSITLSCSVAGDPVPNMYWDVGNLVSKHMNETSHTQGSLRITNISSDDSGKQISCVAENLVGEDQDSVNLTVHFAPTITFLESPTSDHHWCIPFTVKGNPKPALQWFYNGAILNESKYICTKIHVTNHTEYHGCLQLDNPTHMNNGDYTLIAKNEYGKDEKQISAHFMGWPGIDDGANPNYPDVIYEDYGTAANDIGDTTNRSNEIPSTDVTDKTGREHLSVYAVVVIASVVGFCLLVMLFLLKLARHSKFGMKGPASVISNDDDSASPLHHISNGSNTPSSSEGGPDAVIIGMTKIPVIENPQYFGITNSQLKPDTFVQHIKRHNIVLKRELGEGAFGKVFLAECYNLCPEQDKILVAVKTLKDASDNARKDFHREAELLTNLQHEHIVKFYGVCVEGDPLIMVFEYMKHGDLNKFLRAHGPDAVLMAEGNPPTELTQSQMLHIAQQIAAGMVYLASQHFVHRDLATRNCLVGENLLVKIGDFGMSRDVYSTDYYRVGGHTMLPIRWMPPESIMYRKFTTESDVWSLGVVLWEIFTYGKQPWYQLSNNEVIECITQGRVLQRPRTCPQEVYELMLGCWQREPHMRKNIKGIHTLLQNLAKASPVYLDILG

| SMILES | kinase still bound, per cent of control (ACVR2B (human)) [%] | kinase still bound, per cent of control (AKT3 (human)) [%] | kinase still bound, per cent of control (BTK (human)) [%] | kinase still bound, per cent of control (CAMKK2 (human)) [%] | kinase still bound, per cent of control (CDK14 (human)) [%] | kinase still bound, per cent of control (CSK (human)) [%] | kinase still bound, per cent of control (DMPK (human)) [%] | kinase still bound, per cent of control (EIF2AK2 (human)) [%] | kinase still bound, per cent of control (FLT3 (human)) [%] | kinase still bound, per cent of control (IGF1R (human)) [%] | kinase still bound, per cent of control (IRAK3 (human)) [%] | kinase still bound, per cent of control (ITK (human)) [%] | kinase still bound, per cent of control (MAPK10 (human)) [%] | kinase still bound, per cent of control (MYLK (human)) [%] | kinase still bound, per cent of control (NTRK2 (human)) [%] | kinase still bound, per cent of control (PDGFRA (human)) [%] | kinase still bound, per cent of control (PIM2 (human)) [%] | kinase still bound, per cent of control (PRKAA1 (human)) [%] | kinase still bound, per cent of control (PRKCH (human)) [%] | kinase still bound, per cent of control (RPS6KA1 KD2 (human)) [%] | further results |
| --- | --- | --- | --- | --- | --- | --- | --- | --- | --- | --- | --- | --- | --- | --- | --- | --- | --- | --- | --- | --- | --- |
| C=CC(=O)Nc1ccc(CN(C(=O)Nc2c(Cl)c(OC)cc(OC)c2Cl)c2cc(Nc3ccc(N4CCN(C)CC4)cc3)ncn2)cc1 | 100 | 100 | 1.2 | 100 | 100 | 100 | 100 | 100 | 6 | 16 | 100 | 16 | 100 | 100 | 100 | 2.2 | 100 | 100 | 100 | 100 | kinase still bound, per cent of control (AKT2 (human)): 100%; kinase still bound, per cent of control (CSNK1D (human)): 100%; kinase still bound, per cent of control (RPS6KA3 KD1 (human)): 100%; kinase still bound, per cent of control (TESK1 (human)): 100%; kinase still bound, per cent of control (TGFBR2 (human)): 100%; kinase still bound, per cent of control (TXK (human)): 16%; kinase still bound, per cent of control [1]: 100%; kinase still bound, per cent of control (ULK2 (human)): 100%; kinase still bound, per cent of control (WEE1 (human)): 100%; kinase still bound, per cent of control (ZAP70 (human)): 100% |
| CS(=O)(=O)N1CCN(Cc2cc3nc(-c4cccc5[nH]ncc45)nc(N4CCOCC4)c3s2)CC1 | 100 | 100 | 100 | 100 | 100 | 100 | 100 | 100 | 100 | 100 | 100 | 100 | 100 | 100 | 100 | 0 | 100 | 100 | 100 | 100 | kinase still bound, per cent of control (AKT2 (human)): 100%; kinase still bound, per cent of control (CDKL3 (human)): 100%; kinase still bound, per cent of control (CSNK1D (human)): 100%; kinase still bound, per cent of control (ERBB3 (human)): 100%; kinase still bound, per cent of control (HIPK3 (human)): 100%; kinase still bound, per cent of control [2]: 100%; kinase still bound, per cent of control (MATK (human)): 100%; kinase still bound, per cent of control (PI4KB (human)): 100%; kinase still bound, per cent of control (PRPF4B (human)): 100%; kinase still bound, per cent of control (RPS6KA3 KD1 (human)): 100%; kinase still bound, per cent of control (TBK1 (human)): 100%; kinase still bound, per cent of control (TESK1 (human)): 100%; kinase still bound, per cent of control (TGFBR2 (human)): 100%; kinase still bound, per cent of control (TXK (human)): 100%; kinase still bound, per cent of control [1]: 100%; kinase still bound, per cent of control (ULK2 (human)): 100%; kinase still bound, per cent of control (WEE1 (human)): 100%; kinase still bound, per cent of control (ZAP70 (human)): 100% |
| Cc1n[nH]c2ccc(-c3cncc(OC[C@@H](N)Cc4c[nH]c5ccccc45)c3)cc12 | 100 | 2.9 | 100 | 2 | 9.8 | 100 | 0.8 | 100 | 4.5 | 100 | 30 | 100 | 25 | 0.1 | 100 | 100 | 1.2 | 100 | 1.4 | 100 | kinase still bound, per cent of control (TESK1 (human)): 100%; kinase still bound, per cent of control (TGFBR2 (human)): 100%; kinase still bound, per cent of control (TXK (human)): 100%; kinase still bound, per cent of control [1]: 100%; kinase still bound, per cent of control (ULK2 (human)): 12%; kinase still bound, per cent of control (WEE1 (human)): 100%; kinase still bound, per cent of control (ZAP70 (human)): 100% |
| CCN(CC)CCCCNc1ncc2cc(-c3cc(OC)cc(OC)c3)c(NC(=O)NC(C)(C)C)nc2n1 | 100 | 100 | 100 | 100 | 100 | 100 | 100 | 24 | 100 | 100 | 100 | 100 | 100 | 100 | 100 | 100 | 100 | 100 | 100 | 100 | kinase still bound, per cent of control (AKT2 (human)): 100%; kinase still bound, per cent of control (CSNK1D (human)): 100%; kinase still bound, per cent of control (RPS6KA3 KD1 (human)): 100%; kinase still bound, per cent of control (TESK1 (human)): 100%; kinase still bound, per cent of control (TGFBR2 (human)): 100%; kinase still bound, per cent of control (TXK (human)): 100%; kinase still bound, per cent of control (WEE1 (human)): 100%; kinase still bound, per cent of control (ZAP70 (human)): 100% |
| CNC(=O)c1ccc(Nc2cc(Nc3ccccc3S(=O)(=O)C(C)C)c3cc[nH]c3n2)nc1 | 100 | 100 | 0.65 | 100 | 100 | 100 | 10 | 100 | 2.4 | 2.2 | 15 | 0.15 | 17 | 100 | 0 | 100 | 100 | 4.6 | 100 | 100 | kinase still bound, per cent of control (AKT2 (human)): 100%; kinase still bound, per cent of control (CSNK1D (human)): 100%; kinase still bound, per cent of control (RPS6KA3 KD1 (human)): 25%; kinase still bound, per cent of control (TESK1 (human)): 30%; kinase still bound, per cent of control (TGFBR2 (human)): 100%; kinase still bound, per cent of control (TXK (human)): 33%; kinase still bound, per cent of control [1]: 0.95%; kinase still bound, per cent of control (ULK2 (human)): 9.1%; kinase still bound, per cent of control (WEE1 (human)): 100%; kinase still bound, per cent of control (ZAP70 (human)): 100% |
